In patent publication US8476036B2, “Nonluminogenic assay for living cells” (Promega Corporation, priority 2004, dated 2013):
Peptide text beside a SMILES is read from it. * marks the point of attachment. X1 = O=C(O)C1CSC(c2nc3ccc(N*)cc3s2)=N1; Cbz = O=C(OCc1ccccc1)*

Assays:
Format in all cases: cell-based
HL-60 or Jurkat [1] = experiment: Protease retention substrate selectivity, untreated viable cells; design: key: None denotes no statistical activity above control population.; (+) to (+++++) denotes the range of activity above control population from modest to robust; (+) to (+++++) denotes the range of activity above control population from modest to robust; (+) to (+++++) denotes the range of activity above control population from modest to robust; (+) to (+++++) denotes the range of activity above control population from modest to robust; (+) to (+++++) denotes the range of activity above control population from modest to robust; conditions: substrate cleavage activity above control in untreated viable cells; 15-30 minutes at 37° C.
Excerpt: (§1) Ala-Ala-Phe-AMC was obtained from Promega. Z-Leu-Leu-Val-Tyr-aminoluciferin (LLVY corresponds to SEQ ID NO:18), Z-Leu-Arg-aminoluciferin, Z-Phe-Arg-aminoluciferin, Ala-Ala-Phe-aminoluciferin, (Ala-Ala-Phe)2-R110, and (Gly-Phe)2-R110 were synthesized by Promega Biosciences. Suc-Ala-Ala-Phe-AMC, H-Phe-AMC, H-Tyr-AMC, Glutyl-Ala-Ala-Phe-AMC (EMF corresponds to SEQ ID NO:32), H-Gly-Phe-AMC, Z-Gly-Ala-Met-AMC, Suc-Leu-Leu-Val-Tyr-AMC (LLVY corresponds to SEQ ID NO:18), D-Ala-Leu-Lys-AMC, H-Gly-Ala-AMC, H-Gly-Gly-AMC, Suc-Ala-Ala-Phe-AMC, Z-Arg-Leu-Arg-Gly-Gly-AMC (RLRGG corresponds to SEQ ID NO:29), Z-Leu-Arg-Gly-Gly-AMC (LRGG corresponds to SEQ ID NO:30) and Ac-Ala-Ala-Tyr-AMC were sourced from Bachem. Gly-Phe-AFC, Pro-Phe-Arg-AMC, Gly-Gly-Leu-AMC, and Ser-Tyr-AFC were obtained from Calbiochem. Z-Phe-Arg-AMC and Suc-Arg-Pro-Phe-His-Leu-Leu-Val-Tyr-AMC (RPHLLVY corresponds to SEQ ID NO:31) were purchased from Sigma.
(§2) All substrates were solubilized in DMSO from 10 to 100 mM depending upon inherent solubility. Fluorescent substrates were diluted to 100 μM to 1 mM in 10 mM Hepes, pH 7.5 or matched cell culture medium with 10% serum and added in 1/10th volumes to lysed (freeze fractured, sonicated, or detergent) or untreated viable cells in white-walled, clear bottomed 96-well plates. HL-60 or Jurkat were used in the experimentation interchangeably because of their easily manipulated suspension phenotype. Plates were incubated for 15-30 minutes at 37° C. prior to measuring fluorescence by the CYTOFLUOR® II.
(§3) Luminescent substrates were added to a luciferin detection cake (Promega V859A) resuspended in 2 ml 10 mM Hepes, pH 7.5 to 500 μM. ⅕^th volume of the proluminescent reaction mixes were added to lysed (freeze fractured, sonicated, or detergent) or untreated viable cells in white-walled, clear bottomed 96-well plates. Again, HL-60 or Jurkat were used in the experimentation interchangeably. Plates were incubated at 37° C. in a MeCour' circulating heat block controlled by a Caron 2050W exchange unit. Luminescence was measured between 15 and 30 minutes (signal steady state).
(§4) A broad variety of proteolytic substrates were examined in an effort to characterize potential substrate preferences for protease release or retention in compromised or viable cells (see Table 4). […] Non-blocked substrates (H- and the like) were examined to include the contribution of aminopeptidase activities. From this panel, at least three proteolytic profiles emerged: an aminopeptidase-like activity preferring unblocked Ala-Ala-Phe tripeptide, a proteosomal (chymotrypsin-like) activity measured by release of blocked Leu-Leu-Val-Tyr (SEQ ID NO:18) peptides, and an exceedingly labile activity by Gly-Phe, Gly-Ala, Phe-, Tyr- or Gly-Gly-Leu substrates. The latter activities were only measurable in viable, intact cells. Of further significance is that several fluorophores or proluminescent labels can be used to detect these activities, ultimately allowing for enhanced downstream multiplexing flexibility.

HL-60 or Jurkat [2] = experiment: Protease release substrate selectivity, lysed (freeze fractured, sonicated, or detergent) cells; design: key: None denotes no statistical activity above control population.; (+) to (+++++) denotes the range of activity above control population from modest to robust; (+) to (+++++) denotes the range of activity above control population from modest to robust; (+) to (+++++) denotes the range of activity above control population from modest to robust; (+) to (+++++) denotes the range of activity above control population from modest to robust; (+) to (+++++) denotes the range of activity above control population from modest to robust; conditions: substrate cleavage activity above control in lysed cells; 15-30 minutes at 37° C.
Excerpt: as §1, §2, §3, §4

Jurkat cells = experiment: Protease retention assay formats with different peptide sequences and reporters; conditions: viable versus lysed cells
Method: Actively doubling Jurkat cells were serially diluted from 37,500 cells/well in RPMI 1640+10% FBS in a white-walled, clear bottomed 96 well plate in 100 μl volumes. The cells in half of the plate were lysed with the addition of Triton X to 0.2% final. The other half of the plate wells received a matched volume (5 μl) of water vehicle. Tyr-AMC, Phe-AMC and Gly-Phe-AFC were all rehydrated in DMSO to 100 mM then diluted in RPMI 1640 to 1 mM. 1/10th volume of diluted substrates were added to the wells, mixed briefly by orbital shaking then incubated at 37° C. in 5% CO2 for up to 1.5 hours. Resulting fluorescence was measured at Ex. 360 Em. 460 and Ex. 405 and Em. 500 at 30 and 90 minutes.

SK-MEL-28 cells = experiment: Live cell protease retention multiplexed with caspase 3/7 activity, SK-MEL-28; conditions: SK-MEL-28, serial dilutions, 5 hours
Method: (§5) SK-MEL-28 or ACHN cells were seeded into white-walled, clear bottomed 96 well plates at a density of 10,000 cells per well in 100 μl volumes and allowed to attach at 37° C. in 5% CO2 for a period of 2 hours. After attachment, 50 μl of medium was carefully removed and replaced with serial dilutions of either ionomycin or staurosporine in MEM+10% FBS. Medium only served as control. The plate was incubated for an additional 5 hours. A 1 mM solution of Gly-Phe-AFC was made in MEM and added to the wells in a 1/10th volume. Resulting fluorescence was measured using a CYTOFLUOR® II. Caspase-GIo™ 3/7 reagent was then added and luminescence measure using a BMG FLUOstar Optima.

ACHN cells = experiment: Live cell protease retention multiplexed with caspase 3/7 activity, ACHN; conditions: serial dilutions, 5 hours
Method: as §5

HL-60 cells = experiment: Luminescent protease release assay with different enzyme targets; conditions: HL-60 with or without sonication, 15 minutes at 37° C.
Method: Actively doubling HL-60 cells were adjusted to 100,000 cells/ml and split into two aliquots. One aliquot was sonicated using a microtip MISONIXTM™ 3000 with 30% power for three 5 second pulses. The other aliquot was held at 37° C. The cell suspension and lysates were then two-fold serially diluted in RPMI 1640 +10% FBS in 100 μl volumes. Medium only served as the no cell control. A luciferin detection reagent cake (Promega V859A) was resuspended with 2.0 ml of 10 mM Hepes, pH 7.5. The luciferin detection reagent was then divided and made 1 mM with either Z-Leu-Leu-Val-Tyr-aminoluciferin (LLVY corresponds to SEQ ID NO:18) or Ala-Ala-Phe-aminoluciferin. Each reagent was added to independent replicates of the plate in 1/10th volumes and allowed to incubate for 15 minutes at 37° C. in the Me'Cour thermal jacketed water bath holder before luminescence measurement using the BMG FLUOstar Optima.

SMILES	Retention (HL-60 or Jurkat [1])	Release (HL-60 or Jurkat [2])	Suitability as live cell protease retention substrate (Jurkat cells)	Cytotoxicity profile (live cell fluorescence and caspase 3/7 activity) (SK-MEL-28 cells)	Cytotoxicity profile (live cell fluorescence and caspase 3/7 activity) (ACHN cells)	Performance as protease release substrate (HL-60 cells)
NCC(=O)N[C@@H](Cc1ccccc1)C(=O)Nc1ccc2c(c1)Oc1cc(NC(=O)[C@H](Cc3ccccc3)NC(=O)CN)ccc1C21OC(=O)c2ccccc21 [(Gly-Phe)2 R110, (Gly-Phe)2-R110]	None	None	apparently unable to effectively traverse the cell membrane or was not effectively cleaved by the candidate protease			
CN[C@@H]1C[C@H]2O[C@@](C)([C@@H]1OC)n1c3ccccc3c3c4c(c5c6ccccc6n2c5c31)C(=O)NC4 [staurosporine]				caspase activation (and therefore apoptosis induction) is evident	apoptotic profile	
CC(C)CC(NC(=O)OCc1ccccc1)C(=O)NC(CC(C)C)C(=O)NC(C(=O)NC(Cc1ccc(O)cc1)C(=O)Nc1ccc2nc(C3=NC(C(=O)O)CS3)sc2c1)C(C)C (stereo not drawn) [Z-Leu-Leu-Val-Tyr-Aluc, Z-Leu-Leu-Val-Tyr-aminoluciferin] (Cbz-LLVY-X1; configuration not given here)	None	++				performed less optimally than the AAF-aminoluciferin sequence
C[C@H](CCC(=O)O)C[C@H](C)C[C@H](C)C(=O)/C=C(\O)[C@H](C)C[C@H](C)C/C=C/[C@@H](C)[C@@H](O)[C@@H](C)[C@@H](O)C[C@@H]1CC[C@@](C)([C@H]2CC[C@@](C)([C@@H](C)O)O2)O1 [ionomycin]				necrotic-type profile		
